Experimental data taken from publication PMC4947679, “Quantitative In Vitro and In Vivo Evaluation of Intestinal and Blood-Brain Barrier Transport Kinetics of the Plant N-Alkylamide Pellitorine” (BioMed Research International, 2016).
One block for each molecule: values may come before it.

Legend:
[1] = Blood-to-brain transport, multiple time regression (MTR) analysis in mice; settings: mice, injection into jugular vein, MTR
Description: Seven-to-ten-week-old female, Institute for Cancer Research, Caesarean Derived-1 (ICR-CD-1) mice (Harlan Laboratories, Venray, Netherlands) weighing 29–32 g were used for the BBB transport experiments. The experiments were performed according to the Ethical Committee principles of laboratory animal welfare as approved by Ghent University (Faculty of Veterinary Medicine, number EC2014/128).
An in vivo multiple time regression (MTR) analysis was performed in order to determine whether pellitorine could enter the brain. A dose solution of 1.8 mg/mL pure pellitorine dissolved in 6.9% EtOH, 2.5% dimethylacetamide, and 0.5% tween 80 (all w/w) diluted in lactated Ringer's solution containing 1% BSA was prepared. After anesthetizing the mice intraperitoneally with a 40% (w/V) urethane solution (3 g/kg), the jugular internalis vein and carotid artery were isolated and 20 μL of the pellitorine dose solution was injected into the jugular vein. After 1, 3, 5, 10, 12.5, and 15 min after injection (with start and end in duplicate), blood was collected from the carotid artery. Immediately thereafter, the mice were decapitated and the brains were isolated. […] The serum concentrations of pellitorine were plotted against the time (expressed in min). The curve was fitted using a first-order kinetic, two-compartment model: C(t) = C 1 × e ^−α×t + C 2 × e ^−β×t, in which C is the concentration of pellitorine in serum at time t, α and β are hybrid constants, dependent on the rate constants k e (elimination rate constant), k 1,2 (rate constant between central and peripheral tissue compartment), k 2,1 (rate constant between peripheral tissue and central compartment), C 1 is the concentration obtained after extrapolation of the distribution phase α to the y-axis, and C 2 is the concentration obtained after extrapolation of the elimination phase β to the y-axis. The ratio of the pellitorine brain and serum concentration (μL/g) was plotted versus the exposure time (θ), which is a derived time variable of the Gjedde-Patlak plot, to determine the BBB influx kinetics of pellitorine.
The exposure time is computed as θ = ∫0 ^T((C s(t) · dt)/C s(T)) and is defined as the integral of the concentration of pellitorine in serum from start (t = 0 min) to time T, divided by the concentration of pellitorine in serum at time T. The integral of the concentration of pellitorine in serum from zero to time T is the area under the curve until time T.
The brain uptake of pellitorine was fitted using a biphasic model, as elaborated by Wong et al.: (4) CbrainT/CsTK·θ+Vg·1−e^−θ·K1−K/Vg+V0≅K=0Vg·1−e^−θ·K1/Vg+V0 in which C brain(T) is the concentration of pellitorine in the brain at time T (ng/g), C s(T) the concentration of pellitorine in serum at time T (ng/μL), K the net clearance (μL/(g·min)), V g the tissue brain distribution volume (μL/g), K 1 the unidirectional clearance from pellitorine from blood to brain (i.e., the unidirectional brain transfer coefficient, also referred to as influx rate) (μL/(g·min)), and V 0 the vascular brain distribution volume (μL/g).

[2] = Caco-2 cell permeability assay; format: in vitro ADME, human; settings: human, Caco-2; positive (high permeability) control, 20 μM
Description: The Caco-2 cell line originated from a human colorectal carcinoma and was maintained in Dulbecco's modified Eagle's medium (DMEM) (95% humidity, 37°C, 5% CO2), supplemented with 10% (V/V) fetal bovine serum, 100 U/mL penicillin and 100 μg/mL streptomycin, 2 mM L-glutamine, and 1% nonessential amino acids (all from Invitrogen/GIBCO, Ghent, Belgium).
The Caco-2 cell intestinal model was used to investigate the gut mucosa permeation of pellitorine. On each Transwell (Corning Costar, New York, USA) membrane insert filter (0.4 μm pore size, 12 mm filter diameter), the cells were seeded at a density of 2.6 · 10^5 cells/cm^2 cells and cultivated in the described supplemented DMEM. Every second day, the medium was changed. During a period of 21–29 days, the cells were grown and differentiated until monolayers were formed. The integrity of the monolayers was checked via the measurement of transepithelial electrical resistance (TEER) of the monolayers with a Millicell-ERS system (Millipore Corp., Bedford, MA, USA) before and after the transport experiments. The experiments were performed in duplicate for each dose solution. Transport experiments were carried out according to Hubatsch et al. in two directions: from the apical-to-basolateral (ab) direction and from the basolateral-to-apical (ba) direction in Hanks' Balanced Salt solution. Two dose solutions of pellitorine (in Anacyclus pyrethrum extract) of 1 μg/mL in 0.5% EtOH (further indicated as DS1) and of 56 μg/mL in 0.5% of a mixture of vitamin E-TPGS (33.3%), EtOH (11.1%), PEG 400 (33.3%), and PG (22.2%) (further indicated as DS2) dissolved in HBSS were tested.
Final apical volumes of 0.4 mL and basolateral volumes of 1.2 mL were used for 12 mm filter supports during the transport experiment. After 15, 30, 60, 90, and 120 min, samples were taken from the receiver compartment (basolateral to apical transport: 100 μL, apical-to-basolateral transport: 300 μL) and immediately replaced by fresh HBSS. […] Pellitorine was quantified using a ultraperformance liquid chromatography-tandem mass spectrometry (UPLC-MS^2) method as described below.
The apparent permeability coefficient (P app in cm/s) of pellitorine in DS2 was calculated using a sink condition equation, while P app of pellitorine in DS1 was calculated using a nonsink equation. From Fick's first law, J = −D × [dC(x)]/dx (J is the flux or transfer rate along the donor-to-receptor side, D is the diffusion coefficient, x is the distance from the donor compartment, and C(x) is the concentration in the barrier at the coordinate x in the barrier), the following differential equation is derived: dM r(t)/dt = P app × A × [C d(t) − C r(t)], in which P app is the apparent permeability coefficient (a product of distribution coefficient with diffusion coefficient divided by the barrier thickness), M r is the amount of substance in the receiver chamber, A is the cross-sectional area of the barrier, C d is the donor concentration, and C r is the receiver concentration. This differential equation can be solved to calculate P app using different initial conditions depending on sink or nonsink conditions. In case of sink conditions, the following equation was obtained from the amount of compound transported per time dM r(t)/dt with the receiver concentration set to zero [18, 20]:(1) Mrt/Cd,0=Papp×A×t+c, where P app is the apparent permeability coefficient (cm/s), A is the surface area of the filter (1.12 cm^2), C d,0 is the initial concentration in the donor chamber (μg/mL), t is the time (s), and c is a constant term which vanishes, since M r is initially zero at t = 0.
The donor concentration at each time point was calculated by taking into account the amount of compound which already permeated through the cell monolayer during that time interval. In this way, the reduction in donor concentration after every sampling was also taken into account.

[3] = design: method as in PMID 19399718; settings: oral gavage in rats; cited from earlier work

Molecule: Dermorphin [reference compound]
unidirectional influx rate K 1 [1]: 0.26 µL/g/min

Papp A→B at 120 min, 20 μM [2]: 19.1 ×10⁻⁶ cm/s
Molecule: CC(C)NCC(O)COc1cccc2ccccc12 (stereo not drawn) [propranolol, reference compound]

Molecule: dodeca-2E,4E,8E,10E/Z-tetraenoic acid isobutylamides
elimination half-life [3]: 1.20 h
